We go through 34 compounds from patent publication US9115101B2 (Genentech, Inc., priority 2012, dated 2015).

The first assay addresses T1, RORc ligand binding domain (Homo sapiens, UniProt P51449).
T1 construct: host or cells: E. coli
T1 sequence (P51449 269-508 limits assumed): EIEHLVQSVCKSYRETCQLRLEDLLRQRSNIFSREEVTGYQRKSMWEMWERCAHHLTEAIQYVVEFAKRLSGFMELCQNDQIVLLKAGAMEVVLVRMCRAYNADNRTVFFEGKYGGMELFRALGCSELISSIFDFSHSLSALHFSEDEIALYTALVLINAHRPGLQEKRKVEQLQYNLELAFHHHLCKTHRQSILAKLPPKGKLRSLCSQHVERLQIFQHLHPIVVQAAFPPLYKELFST
As to the kind of experiment: In Vitro RORc Ligand Binding Assay (25-[3H]hydroxycholesterol radioligand filtration). The conditions noted are these: In Vitro RORc Ligand Binding Assay; Table 4; read-out: RORc IC50.
For the compound `C[C@H]1CCC(c2ccccc2)S(=O)(=O)N1Cc1ccc(N2CCCNCC2)cc1F` (single isomer, unassigned) [Example 89], the concentration for half-maximal inhibition (IC50) – broadly, the midpoint of a concentration-inhibition curve – is 1.25 µM. Same read-out and setting: with `O=S1(=O)C(c2ccccc2)CCCCN1Cc1ccc(N2CCC(n3cnnc3)CC2)cc1` (single isomer, unassigned) [Example 336, 7-Phenyl-2-[4-(4-[1,2,4]triazol-4-yl-piperidin-1-yl)-benzyl]-[1,2]thiazepane 1,1-dioxide] the figure was 0.028 µM; with `C[C@H]1CCC(c2ccccc2)S(=O)(=O)N1Cc1ccc(N2CCN(C3=CC(=O)CC(C)(C)C3)CC2)cc1F` (stereo partly drawn) [Example 187, 3-{4-[3-Fluoro-4-((3S)-3-methyl-1,1-dioxo-6-phenyl-[1,2]thiazinan-2-ylmethyl)-phenyl]-piperazin-1-yl}-5,5-dimethyl-cyclohex-2-enone], 0.647 µM. Consider `C[C@H]1CCC(c2ccccc2)S(=O)(=O)N1Cc1ccc(C(=O)N2CCC3(CCOC3)C2)cc1` (stereo partly drawn) [Example 358, [4-((3S)-Methyl-1,1-dioxo-6-phenyl-[1,2]thiazinan-2-ylmethyl)-phenyl]-(2-oxa-7-aza-spiro[4.4]non-7-yl)-methanone], for which the IC50 came to 1.22 µM.

As for `C[C@H]1CCC(c2ccccc2)S(=O)(=O)N1Cc1ccc(C(=O)N2CCC3(COC3)C2)cc1` (stereo partly drawn) [Example 354, [4-((3S)-Methyl-1,1-dioxo-6-phenyl-[1,2]thiazinan-2-ylmethyl)-phenyl]-(2-oxa-6-aza-spiro[3.4]oct-6-yl)-methanone], the concentration for half-maximal inhibition (IC50) was determined as 3.01 µM. As to `CS(=O)(=O)N1CCC(Oc2ccc(CN3CCCC(c4ccccc4)S3(=O)=O)c(F)c2)CC1` (single isomer, unassigned) [Example 54, 2-(2-fluoro-4-((1-(methylsulfonyl)piperidin-4-yl)oxy)benzyl)-6-phenyl-1,2-thiazinane 1,1-dioxide], the IC50 was 0.037 µM.

With `CS(=O)(=O)N1CCC(Oc2ccc(CN3CCOCC(c4ccccc4)S3(=O)=O)c(F)c2)CC1` (single isomer, unassigned) [Example 56, 5-(2-fluoro-4-((1-(methylsulfonyl)piperidin-4-yl)oxy)benzyl)-3-phenyl-1,4,5-oxathiazepane 4,4-dioxide], the concentration for half-maximal inhibition (IC50) is 0.094 µM.

As for `CC(=O)N1CCN(c2ccc(CN3[C@@H](C)CCC(c4cccc(F)c4)S3(=O)=O)c(F)c2)CC1` (single isomer, unassigned) [Example 128], the IC50 amounted to 0.052 µM.

Take `COC(=O)[C@@H]1CN(C(C)=O)CCN1c1ccc(CN2[C@@H](C)CCC(c3ccccc3)S2(=O)=O)c(F)c1` (stereo partly drawn) [Example 392, (S)-4-Acetyl-1-[3-fluoro-4-((3S)-methyl-1,1-dioxo-6-phenyl-[1,2]thiazinan-2-ylmethyl)-phenyl]-piperazine-2-carboxylic acid methyl ester]: the half-maximal inhibitory concentration (IC50) was determined as 0.013 µM. As to `CC(=O)N1CCN(c2ccc(CN3CC4(CC4)CC(c4ccccc4)S3(=O)=O)c(F)c2)CC1` (single isomer, unassigned) [Example 199, 1-{4-[4-(6,6-Dioxo-7-phenyl-6-thia-5-aza-spiro[2.5]oct-5-ylmethyl)-3-fluoro-phenyl]-piperazin-1-yl}-ethanone], the half-inhibitory concentration (IC50) is 0.014 µM. The same measure, in the same setting: the figure for `CC(=O)N1CCN(c2ccc(CN3[C@@H](C)CCC(c4ccc(Cl)cc4)S3(=O)=O)c(F)c2)CC1` (single isomer, unassigned) [Example 175] is 0.03 µM; for `CC(=O)N1CCN(c2ccc(CN3C[C@@H](C)CC(c4ccccc4)S3(=O)=O)c(F)c2)CC1` (single isomer, unassigned) [Example 197] it is 0.356 µM; for `CC(=O)N1CCN(c2ccc(CN3[C@@H](C)CCC(c4ccccc4C#N)S3(=O)=O)c(F)c2)CC1` (single isomer, unassigned) [Example 208] it is 0.032 µM. Same read-out and setting: with `CC[C@H]1CCC(c2ccccc2)S(=O)(=O)N1Cc1ccc(N2CCC(n3cnnc3)CC2)cc1F` (single isomer, unassigned) [Example 228] the figure was 0.021 µM; with `O=S1(=O)C(c2ccccc2)CC2(CC2)CN1Cc1ccc(N2CCC(n3cnnc3)CC2)cc1F` (single isomer, unassigned) [Example 257, 5-[2-Fluoro-4-(4-[1,2,4]triazol-4-yl-piperidin-1-yl)-benzyl]-7-phenyl-6-thia-5-aza-spiro[2.5]octane 6,6-dioxde], 0.054 µM; with `C[C@H]1CCC(c2ccccc2)S(=O)(=O)N1Cc1ccc(N2CCn3nccc3C2)cc1F` (single isomer, unassigned) [Example 133], 0.244 µM. As for `C[C@H]1CCC(c2ccccc2)S(=O)(=O)N1Cc1ccc(C(=O)NC2CCCC2O)cc1` (stereo partly drawn) [Example 270, N-(2-Hydroxy-cyclopentyl)-4-((3S)-methyl-1,1-dioxo-6-phenyl-[1,2]thiazinan-2-ylmethyl)-benzamide], the IC50 amounted to 2.44 µM. The same measure, in the same setting: the figure for `C[C@H]1CCC(c2ccccc2)S(=O)(=O)N1Cc1ccc(C(=O)N2CCOC(C(=O)N(C)C)C2)cc1` (stereo partly drawn) [Example 293, 4-[4-((3S)-Methyl-1,1-dioxo-6-phenyl-[1,2]thiazinan-2-ylmethyl)-benzoyl]-morpholine-2-carboxylic acid dimethylamide] is 8.31 µM; for `CC(=O)N1CCN(c2ccc(CN3[C@@H](C)CCC(c4ccccc4)S3(=O)=O)cc2)CC1` (single isomer, unassigned) [Example 40] it is 0.081 µM; for `C[C@H]1CCC(c2ccccc2)S(=O)(=O)N1Cc1ccc(C(=O)NC2CCS(=O)(=O)CC2)cc1` (stereo partly drawn) [Example 386, N-(1,1-Dioxo-hexahydro-1-thiopyran-4-yl)-4-((3S)-methyl-1,1-dioxo-6-phenyl-[1,2]thiazinan-2-ylmethyl)-benzamide] it is 1.49 µM. As to `C[C@H]1CCC(c2ccccc2)S(=O)(=O)N1Cc1ccc(N2CCC(n3cncn3)CC2)cc1F` (stereo partly drawn) [Example 215, (3S)-2-[2-Fluoro-4-(4-[1,2,4]triazol-1-yl-piperidin-1-yl)-benzyl]-3-methyl-6-phenyl-[1,2]thiazinane 1,1-dioxide], the IC50 is 0.03 µM. As to `C[C@H]1CCC(c2ccccc2)S(=O)(=O)N1Cc1ccc(C(=O)N2CC3(CCCOC3)C2)cc1` (stereo partly drawn) [Example 356, [4-((3S)-Methyl-1,1-dioxo-6-phenyl-[1,2]thiazinan-2-ylmethyl)-phenyl]-(6-oxa-2-aza-spiro[3.5]non-2-yl)-methanone], the IC50 amounted to 3.17 µM. On the same count and under the same terms, with `C[C@@H](O)C(=O)N1CCN(c2ccc(CN3CCCCC(c4ccccc4)S3(=O)=O)c(F)c2)CC1` (single isomer, unassigned) [Example 314, 1-{4-[4-(1,1-Dioxo-7-phenyl-[1,2]thiazepan-2-ylmethyl)-3-fluoro-phenyl]-piperazin-1-yl}-2-hydroxy-propan-1-one] the figure was 0.237 µM.

Take `C[C@H]1CCC(c2ccccc2)S(=O)(=O)N1Cc1ccc(C(=O)NCC2COC2)cc1` (stereo partly drawn) [Example 269, 4-((3S)-Methyl-1,1-dioxo-6-phenyl-[1,2]thiazinan-2-ylmethyl)-N-oxetan-3-ylmethyl-benzamide]: the IC50 is 1.67 µM. On to `C[C@H](O)C(=O)N1CCN(c2ccc(CN3CCCCC(c4ccccc4)S3(=O)=O)c(F)c2)CC1` (single isomer, unassigned) [Example 304, 1-{4-[4-(1,1-Dioxo-7-phenyl-[1,2]thiazepan-2-ylmethyl)-3-fluoro-phenyl]-piperazin-1-yl}-2-hydroxy-propan-1-one], for which the IC50 was found to be 0.038 µM. On to `C[C@H]1CCC(c2ccccc2)S(=O)(=O)N1Cc1ccc(C(=O)N2C3CNC(=O)C2C3)cc1` (stereo partly drawn) [Example 360, 6-[4-((3S)-Methyl-1,1-dioxo-6-phenyl-[1,2]thiazinan-2-ylmethyl)-benzoyl]-3,6-diaza-bicyclo[3.1.1]heptan-2-one], for which the half-inhibitory concentration (IC50) turned out to be 3.45 µM. On to `C[C@H]1CCC(c2ccccc2)S(=O)(=O)N1Cc1ccc(N2CCC(c3nnn[nH]3)CC2)cc1F` (single isomer, unassigned) [Example 141], for which the IC50 is 0.057 µM. As to `CC(=O)N1CCN(c2ccc(CN3[C@@H](C)CCC(c4ccccc4)S3(=O)=O)cc2C#N)CC1` (single isomer, unassigned) [Example 113], the IC50 worked out at 2.75 µM.

For `CC(=O)N1CCN(c2ccc(CN3C(C)CCCC(c4ccccc4)S3(=O)=O)c(F)c2)CC1` (single isomer, unassigned) [Example 327, 1-{4-[3-Fluoro-4-(3-methyl-1,1-dioxo-7-phenyl-[1,2]thiazepan-2-ylmethyl)-phenyl]-piperazin-1-yl}-ethanone], the IC50 came out at 0.003 µM. Still for that read-out and setting: the figure for `C[C@H]1CCC(c2ccccc2)S(=O)(=O)N1Cc1ccc(C(=O)N(C)C2CCS(=O)(=O)C2)cc1` (stereo partly drawn) [Example 289, N-(1,1-Dioxo-tetrahydro-thiophen-3-yl)-N-methyl-4-((3S)-methyl-1,1-dioxo-6-phenyl-[1,2]thiazinan-2-ylmethyl)-benzamide] is 1.74 µM.

The assay is the same for the next values; noted with them: read-out: RORc IC50.
On to `C[C@H]1CCC(c2ccccc2)S(=O)(=O)N1Cc1ccc(OC2CCC(=O)NC2)cc1` (stereo partly drawn) [Example 449, 5-[4-((3S)-Methyl-1,1-dioxo-6-phenyl-[1,2]thiazinan-2-ylmethyl)-phenoxy]-piperidin-2-one], for which the 50% inhibitory concentration (IC50) was found to be 0.852 µM. On the same count and under the same terms, with `C[C@H]1CCC(c2ccccc2)S(=O)(=O)N1Cc1ccc(C(=O)NC2CCC(O)C2)cc1` (single isomer, unassigned) [Example 408] the figure was 3.52 µM; with `CONC(=O)[C@@H]1CN(c2ccc(CN3[C@@H](C)CCC(c4ccccc4)S3(=O)=O)c(F)c2)CCN1C(C)=O` (stereo partly drawn) [Example 407, (S)-1-Acetyl-4-[3-fluoro-4-((3S)-methyl-1,1-dioxo-6-phenyl-[1,2]thiazinan-2-ylmethyl)-phenyl]-piperazine-2-carboxylic acid methoxy-amide], 0.148 µM. Still for that read-out and setting: the figure for `C[C@H]1CCC(c2ccccc2)S(=O)(=O)N1Cc1ccc(OCC2CC2)cc1` (stereo partly drawn) [Example 431, 2-(4-Cyclopropylmethoxy-benzyl)-(3S)-methyl-6-phenyl-[1,2]thiazinane 1,1-dioxide] is 0.641 µM.
